Measured values reported in patent US10364263B2, “Cyclic phosphates and cyclic phosphoramidates for the treatment of neurologic disorders” (Retrophin, Inc., priority 2015, dated 2019).

Assays:
[1] = tested on: PANK2 silenced human neuroblastoma IMR32 cells (PANK2−/−); test: Coenzyme A assay in PANK2 silenced cells (LC-MS quantification of free CoA); type: cell-based; conditions: compound added twice (24 h + 24 h), relative to 0.1% DMSO controls
Method in brief: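 PANK2 shRNA-silenced IMR32 neuroblastoma cells were treated with compound (0.1% DMSO) for 24 h, then re-dosed with fresh compound for a further 24 h at 37 °C. TFA extracts of 1×10^6 cells were assayed for free CoA by LC-MS/MS (MRM 768.1→261.6/136.1). Results are given as fold change versus DMSO controls.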

[2] = Stability in mouse plasma; type: in vitro ADME
Procedure: (§1) Compounds and positive control samples were dissolved in 100% DMSO at 3 mM. To investigate the stability of the test compounds in plasma, samples were made by diluting test compounds into plasma from the stock solutions to obtain a test compound concentration of 3 μM (0.1% DMSO). Before addition of a test compound, 990 μl of plasma were preincubated at 37° C. for 5 min in eppendorf. After addition of a test compound, 70 μl for each time point were transferred to a 96-deepwell plate, previously warmed at 37° C. in a DUBNOFF water bath. Each compound was tested at five time points, in duplicate (10, 20, 30, 40 and 60 min). At each time point, an aliquot of 50 μl was taken and transferred to a new 96-deepwell plate, and the reaction was stopped with 200 μl of 100% acetonitrile containing 0.1% formic acid and the appropriate internal standard. Then samples were centrifuged at 1100×g for 30 min at +4° C. and supernatants were transferred to a new 96-deepwell plate. Samples were evaporated under N2 and reconstituted in H2O/ACN 0.1% Formic Acid (98:2). Analysis was performed without a calibration curve (Acquity UPLC-Waters; SciexAPI4000). Time 0 was obtained by adding acetonitrile before addition of the test compound.

[3] = Stability in human plasma; type: in vitro ADME; conditions: 37° C.
Procedure: as §1

[4] = human, plasma, Diastereoisomer A (upfield shift in 31P NMR), read-out: t1/2, Human Plasma, Diastereoisomer A (converted)
[5] = human, plasma, Diastereoisomer B, read-out: t1/2, Human Plasma, Diastereoisomer B (converted)
[6] = Diastereoisomer A (upfield shift in 31P NMR), 3 μM, 37° C., mouse plasma, read-out: t1/2, Mouse Plasma, Diastereoisomer A
[7] = Diastereoisomer A (upfield shift in 31P NMR), read-out: t1/2, Human Plasma, Diastereoisomer A (converted)

Row | SMILES | PANK2−/− CoA (Fold Increase): fold increase in Coenzyme A (CoA) levels relative to controls [1] [Fold Increase] | half-life at 3 µM ([2]; mouse, plasma) [min] | t1/2, Mouse Plasma, Diastereoisomer B ([2]; mouse, plasma, 3 µM) [min] | half-life at 3 µM [3, 4] [min] | half-life at 3 µM [3, 5] [min] | half-life at 3 µM [2, 6] [min] | t1/2, Mouse Plasma, Diastereoisomer B ([2]; Diastereoisomer B, 3 μM, 37° C., mouse plasma) [min] | half-life at 3 µM [3, 7] [min] | t1/2, Human Plasma, Diastereoisomer B ([3]; Diastereoisomer B, 3 μM) [h]
1 | CC(C)(C)C(=O)OCOP1(=O)OCC(C)(C)[C@H](C(=O)NCCC(=O)OC2CCOC2)O1 (stereo partly drawn) [Compound No. 94, (((4R)-5,5-dimethyl-2-oxido-4-((3-oxo-3-((tetrahydrofuran-3-yl)oxy)propyl)carbamoyl)-1,3,2-dioxaphosphinan-2-yl)oxy)methyl pivalate] | 13.14 | < 9.6 | <9.6 | 40.8 | < 9.6 |  |  |  | 
2 | CC(C)(C)C(=O)OCO[P@@]1(=O)OCC(C)(C)[C@H](C(=O)NCCC(=O)OC2CCNC2)O1 (stereo partly drawn) [Compound No. 92, (((2S,4R)-5,5-dimethyl-2-oxido-4-((3-oxo-3-(pyrrolidin-3-yloxy)propyl)carbamoyl)-1,3,2-dioxaphosphinan-2-yl)oxy)methyl pivalate] | 5.13 | < 9.6 |  | 27 |  |  |  |  | 
3 | COC(=O)CCNC(=O)[C@@H]1OP(=O)(N[C@@H](C)C(=O)OCCc2scnc2C)OCC1(C)C (stereo partly drawn) [compound 31, methyl 3-((4R)-5,5-dimethyl-2-(((S)-1-(2-(4-methylthiazol-5-yl)ethoxy)-1-oxopropan-2-yl)amino)-2-oxido-1,3,2-dioxaphosphinane-4-carboxamido)propanoate] | 1.1 | < 9.6 | <9.6 | > 60 | > 60 |  |  |  | 
4 | COC(=O)CCNC(=O)[C@@H]1OP(=O)(NCCc2ccc(F)cc2)OCC1(C)C (stereo partly drawn) [compound 129, methyl 3-((4R)-2-((4-fluorophenethyl)amino)-5,5-dimethyl-2-oxido-1,3,2-dioxaphosphinane-4-carboxamido)propanoate] | 0.9 |  |  |  |  | < 9.6 | <9.6 | > 60 | >1
5 | C[C@H](NP1(=O)OCC(C)(C)[C@H](C(=O)NCCC(=O)OCc2cnccn2)O1)C(=O)OCCc1ccccc1 (stereo partly drawn) [compound 39, phenethyl ((4R)-5,5-dimethyl-2-oxido-4-((3-oxo-3-(pyrazin-2-ylmethoxy)propyl)carbamoyl)-1,3,2-dioxaphosphinan-2-yl)-L-alaninate] | 2.18 | < 9.6 | <9.6 | > 60 | > 60 |  |  |  | 
6 | C[C@H](NP1(=O)OCC(C)(C)[C@H](C(=O)NCCC(=O)O)O1)C(=O)OCCc1ccccc1 (stereo partly drawn) [compound 41, 3-((4R)-5,5-dimethyl-2-oxido-2-(((S)-1-oxo-1-phenethoxypropan-2-yl)amino)-1,3,2-dioxaphosphinane-4-carboxamido)propanoic acid] | 2.02 | 12 |  | > 60 |  |  |  |  | 
7 | COC(=O)CCNC(=O)[C@@H]1OP(=O)(NCc2ccncc2)OCC1(C)C (stereo partly drawn) [compound 125, methyl 3-((4R)-5,5-dimethyl-2-oxido-2-((pyridin-4-ylmethyl)amino)-1,3,2-dioxaphosphinane-4-carboxamido)propanoate] | 1.99 |  |  |  |  | < 9.6 |  | > 60 | 
8 | COC(=O)CCNC(=O)[C@@H]1O[P@@](=O)(N[C@@H](C)C(=O)OC2Cc3ccccc3C2)OCC1(C)C [compound 43, 2,3-dihydio-1H-inden-2-yl ((2R,4R)-4-((3-methoxy-3-oxopropyl)carbamoyl)-5,5-dimethyl-2-oxido-1,3,2-dioxaphosphinan-2-yl)-L-alaninate] | 1.97 | < 9.6 |  | > 60 |  |  |  |  | 
9 | COC(=O)CCNC(=O)[C@@H]1OP(=O)(OCOC(=O)C2(C)CN(C(=O)OC(C)(C)C)C2)OCC1(C)C (stereo partly drawn) [Compound No. 85, 1-(tert-butyl) 3-((((4R)-4-((3-methoxy-3-oxopropyl)carbamoyl)-5,5-dimethyl-2-oxido-1,3,2-dioxaphosphinan-2-yl)oxy)methyl) 3-methylazetidine-1,3-dicarboxylate] | 216.8 | < 9.6 | <9.6 | < 9.6 | < 9.6 |  |  |  | 
10 | COC(=O)CCNC(=O)[C@@H]1OP(=O)(OCOC(=O)OCc2cccnc2)OCC1(C)C (stereo partly drawn) [Compound No. 97, Methyl 3-((4R)-5,5-dimethyl-2-oxido-2-((((pyridin-3-ylmethoxy)carbonyl)oxy)methoxy)-1,3,2-dioxaphosphinane-4-carboxamido)propanoate] | 77.04 | < 9.6 |  | < 9.6 |  |  |  |  | 
11 | COC(=O)CCNC(=O)[C@@H]1OP(=O)(N[C@H](C)C(=O)OCc2cnccn2)OCC1(C)C (stereo in doubt) [compound 42, methyl 3-((2S,4R)-5,5-dimethyl-2-oxido-2-(((R)-1-oxo-1-(pyrazin-2-ylmethoxy)propan-2-yl)amino)-1,3,2-dioxaphosphinane-4-carboxamido)propanoate] | 2.42 | < 9.6 |  | > 60 |  |  |  |  | 
12 | CCOCCCOC(=O)CCNC(=O)[C@@H]1O[P@@](=O)(OCOC(=O)C(C)(C)C)OCC1(C)C (single isomer, unassigned) [Compound No. 96] | 29.43 | < 9.6 |  | 16.8 |  |  |  |  | 
13 | C[C@H](NP1(=O)OCC(C)(C)[C@H](C(=O)NCCC(=O)OCC2CC2)O1)C(=O)OCCc1ccccc1 (stereo partly drawn) [compound 37, cyclopropylmethyl 3-((4R)-5,5-dimethyl-2-oxido-2-(((S)-1-oxo-1-phenethoxypropan-2-yl)amino)-1,3,2-dioxaphosphinane-4-carboxamido)propanoate] | 1.9 |  |  | > 60 | > 60 |  |  |  | 
14 | CN1CCCC(OC(=O)CCNC(=O)[C@@H]2OP(=O)(OCOC(=O)C(C)(C)C)OCC2(C)C)C1 (stereo partly drawn) [Compound No. 99, (((4R)-5,5-dimethyl-4-((3-((1-methylpiperidin-3-yl)oxy)-3-oxopropyl)carbamoyl)-2-oxido-1,3,2-dioxaphosphinan-2-yl)oxy)methyl pivalate] | 10.44 |  |  | 39.6 |  |  |  |  | 
15 | COC(=O)CCNC(=O)[C@@H]1O[P@@](=O)(N[C@@H](C)C(=O)OCCc2ccccn2)OCC1(C)C [compound 35, methyl 3-((2R,4R)-5,5-dimethyl-2-oxido-2-(((S)-1-oxo-1-(2-(pyridin-2-yl)ethoxy)propan-2-yl)amino)-1,3,2-dioxaphosphinane-4-carboxamido)propanoate] | 2.23 |  |  | > 60 | 53.4 |  |  |  | 
16 | C[C@H](NP1(=O)OCC(C)(C)[C@H](C(=O)NCCC(=O)OCc2ccncc2)O1)C(=O)OCCc1ccccc1 (stereo partly drawn) [compound 38, phenethyl ((4R)-5,5-dimethyl-2-oxido-4-((3-oxo-3-(pyridin-4-ylmethoxy)propyl)carbamoyl)-1,3,2-dioxaphosphinan-2-yl)-L-alaninate] | 2.76 |  |  | > 60 | > 60 |  |  |  | 
17 | C[C@H](NP1(=O)OCC(C)(C)[C@H](C(=O)NCCC(=O)OC[C@H]2CCC(=O)N2)O1)C(=O)OCCc1ccccc1 (stereo partly drawn) [compound 47, ((R)-5-oxopyrrolidin-2-yl)methyl 3-((4R)-5,5-dimethyl-2-oxido-2-(((S)-1-oxo-1-phenethoxypropan-2-yl)amino)-1,3,2-dioxaphosphinane-4-carboxamido)propanoate] | 1.38 |  |  | > 60 |  |  |  |  | 
18 | COC(=O)CCNC(=O)[C@@H]1O[P@](=O)(N[C@H](C(=O)OCCc2ccccc2)C(C)C)OCC1(C)C [compound 45, phenethyl ((2S,4R)-4-((3-methoxy-3-oxopropyl)carbamoyl)-5,5-dimethyl-2-oxido-1,3,2-dioxaphosphinan-2-yl)-L-valinate] | 1.3 |  |  | > 60 |  |  |  |  | 
